Measured values: US20240109925A1, “Enhanced Anti-Proliferative and Antitumor Immune Effects of Mitochondria-Targeted Hydroxyurea” (The Medical College of Wisconsin, Inc., priority 2021, published 2024)
Read-outs that look alike come from different tables or passages of the source.

Columns and labels:
mitochondrial complex I = mitochondrial complex I (Homo sapiens, UniProt O75251+O75306+P03886); experiment: Complex I-dependent oxygen consumption (OCR), Seahorse XF-96, HCT116 cells; format: cell-based
Procedure: (§1) FIG. 2. Effects of HU and Mito-HUs on the oxygen consumption by mitochondrial complexes I and III (A) Dose-dependent effects of HU, Mito10-HU, Mito12-HU, Mito14-HU, Mito16-HU, and Mito20-HU on complex I- and complex III-dependent oxygen consumption were measured in HCT116 cells. HCT116 cells were treated with HU or Mito-HUs as indicated for 24 hr. Mitochondrial complex I activity (left) and complex III activity (right) were monitored by a Seahorse XF-96 analyzer. Either rotenone (complex I inhibitor) or antimycin A (complex III inhibitor) was acutely added and OCR assayed immediately. (B) The mitochondrial complex I (left) and III (right) dependent oxygen consumption (calculated as rotenone or antimycin A inhibitable OCR) are plotted against concentration of HU and Mito-HUs. Dashed lines represent the fitting curves used for determination of the IC50 values. Data shown are the means G SD.
(§2) Mitochondrial oxygen consumption was measured using the Seahorse XF-96 Extracellular Flux Analyzer (Agilent, North Billerica, MA) (Cheng et al., 2013, 2016; Boyle et al., 2018; Weinberg and Chandel, 2015). After cells were treated with HU or Mito-HUs for 24 hr, the OCR-based assessment of mitochondrial complex activities was carried out on acutely permeabilized cells in the presence of different mitochondrial substrates, i.e., pyruvate/malate for complex I and duroquinol for complex III (Cheng et al., 2016, 2019; Salabei et al., 2014; Wheaton et al., 2014). Rotenone, malonate, and antimycin A (Sigma-Aldrich, St. Louis, MO) were used as specific inhibitors of mitochondrial complexes I, II, and III, respectively. Briefly, cells that were intact after treatments were immediately permeabilized using the Seahorse XF Plasma Membrane Permeabilizer (Agilent). The mitochondrial complex I-induced OCR was assayed in mannitol and sucrose buffer (Salabei et al., 2014) containing 10 mM pyruvate and 1.5 mM malate (substrates for complex I) and 10 mM malonate (which inhibits complex II activities). The mitochondrial complex III-driven OCR was assayed in a mannitol and sucrose buffer containing 0.5 mM duroquinol (substrate for complex III) as well as […] and 10 mM malonate (which inhibit both complex I and II activities). The IC50 values were determined as previously reported (Cheng et al., 2019).

[1] = molecular target: T1, mitochondrial complex III (Homo sapiens, UniProt P00156+P47985); experiment: Complex III-dependent oxygen consumption (OCR), Seahorse XF-96, HCT116 cells; format: cell-based
T1 construct: other: mean ± SD; HCT116, 24 hr treatment; Complex III activity (OCR, % of control); other: 0.1 μM, 24 hr, HCT116; n = 4; other: 0.5 μM, 24 hr, HCT116; other: 0.75 μM, 24 hr, HCT116; other: 1 μM, 24 hr, HCT116; Compl
Procedure: as §1, §2

M-MDSC = experiment: In vitro differentiation of MDSCs from bone marrow cells, flow cytometry; format: cell-based, mouse; conditions: for IC50: Mus musculus, Bone marrow cell
Excerpt: (§3) FIG. 5. In vitro differentiation of MDSCs and suppressive neutrophils in the presence of different concentrations of Mito14-HU and Mito-HUs with varying hydrophobicities (A) Scheme of differentiation of MDSCs. (B) Representative flow cytometry contour plots of in vitro differentiation of MDSCs under varying concentrations of Mito14-HU using FlowJo Software (FlowJo Software, 2019). (C) Summary data depicting distribution of MDSCs after three days treatment with Mito14-HU generated from panel (B). (D and E) (D) Dose-dependent effects of Mito-HUs with different side chain lengths on M-MDSC and (E) suppressive neutrophils. Dashed lines represent the fitting curves used for determination of the IC50 values. Data shown are the means & SD.
(§4) MDSCs were generated from bone marrow cells isolated from C57b1/6 mice and cultured at a density of 1 3 10^6 cells/ml in RPMI with 10% fetal bovine serum and 25 ng/ml recombinant mouse GM-CSF (Shenandoah Biotechnology, Inc.) and 25 ng/ml recombinant mouse IL-6 (Shenandoah Biotechnology, Inc.) for three days. Then, cells were re-cultured in fresh media with inhibitors for an additional three days. Cells were scraped and examined by flow cytometry using the following markers: FITC-anti Ly6C (Biolegend, San Diego, CA), PE-Cy7 anti F4/80 (Biolegend), APC-Cy7 anti Ly6G (Biolegend), and Pacific Blue anti-CD11b (Biolegend). A gating strategy similar to that employed for the T cells was used in all MDSC differentiation assays, which were tested only on live cells after treatments. Flow cytometry data were acquired using a BD Celesta flow cytometer (BD Biosciences), and data were analyzed using FlowJo software (Treestar, Inc.).

suppressive neutrophils = experiment: as above; format: cell-based, mouse; conditions: for IC50: Mus musculus, Neutrophil, 72 h, read-out: IC50 Suppressive Neutrophils (FIG. 6)
Excerpt: as §3, §4

[2] = system: MiaPaCa-2 human pancreatic cancer cells; experiment: Cell proliferation, IncuCyte Live-Cell Analysis system; format: cell-based
Excerpt: FIG. 7. Effects of HU and Mito10-HU on proliferation of MiaPaCa-2 human pancreatic cancer cells; MiaPaCa-2 cells treated with HU or Mito10-HU were monitored in the IncuCyte Live-Cell Analysis system. Cell proliferation was monitored in real-time with the continuous presence of indicated treatments until the end of each experiment. Data shown are the means±SD.
The following cell lines were obtained from the American Type Culture Collection (Manassas, VA), where they were regularly authenticated: HCT116 (ATCC Cat #CRL-247, human colon cancer cells) and MiaPaCa-2 (ATCC Cat #CRL-1420, human pancreatic cancer cells). All cells were cultured in a humidified incubator at 37° C. and 5% carbon dioxide. HCT116 cells were maintained in RPMI 1640 medium (Thermo Fisher Scientific, Cat #11875), supplemented with 10% fetal bovine serum. MiaPaCa-2 cells were maintained in Dulbecco's Modified Eagle Medium (Thermo Fisher Scientific, Waltham, MA; Cat #11965) supplemented with 10% fetal bovine serum. All cells were stored in liquid nitrogen and used within 20 passages after thawing.
The IncuCyte Live-Cell Analysis system (Essen Bioscience Inc., Ann Arbor, MI) was used to monitor cell proliferation (Cheng et al., 2013, 2016; Boyle et al., 2018). As shown in previous publications (Cheng et al., 2013, 2016), this imaging system is probe-free and noninvasive, and enables continuous monitoring of cell confluence over several days. The increase in the percentage of cell confluence was used as a surrogate marker of cell proliferation. In a 96-well plate, cells were plated at 1,000 cells per well in triplicates and left to adhere overnight. Cells were then treated with HU and Mito-HUs, and the cell confluency was recorded over several days in the IncuCyte Live-Cell Analysis system.

[3] = mean ± SD; HCT116, 24 hr treatment; read-out: IC50 Complex I (FIG. 2)
[4] = mean ± SD; HCT116, 24 hr treatment; read-out: IC50 Complex III (FIG. 2)
[5] = 72 h, read-out: IC50 M-MDSC (FIG. 6)
[6] = read-out: IC50 frequency of M-MDSCs

NC(=O)NO [HU, Hydroxyurea]
effect on complex I-induced oxygen consumption (mitochondrial complex I; HCT116, 24 hr): no apparent effects | remaining activity at 10 µM (mitochondrial complex I; HCT-116; 10 μM, 24 hr, HCT116; n = 4; read-out: Complex I activity (OCR, % of control)): 84.7% | remaining activity at 30 µM (mitochondrial complex I; HCT-116; 30 μM, 24 hr, HCT116; n = 4; read-out: Complex I activity (OCR, % of control)): 77% | remaining activity at 100 µM (mitochondrial complex I; HCT-116; 100 μM, 24 hr, HCT116; n = 4; read-out: Complex I activity (OCR, % of control)): 87.9% | remaining activity at 150 µM (mitochondrial complex I; HCT-116; 150 μM, 24 hr, HCT116; n = 4; read-out: Complex I activity (OCR, % of control)): 86.1% | remaining activity at 200 µM (mitochondrial complex I; HCT-116; 200 μM, 24 hr, HCT116; n = 4; read-out: Complex I activity (OCR, % of control)): 86.5% | remaining activity at 250 µM (mitochondrial complex I; HCT-116; 250 μM, 24 hr, HCT116; n = 4; read-out: Complex I activity (OCR, % of control)): 91.3% | remaining activity at 300 µM (mitochondrial complex I; HCT-116; 300 μM, 24 hr, HCT116; n = 4; read-out: Complex I activity (OCR, % of control)): 85.7% | remaining activity at 400 µM (mitochondrial complex I; HCT-116; 400 μM, 24 hr, HCT116; n = 4; read-out: Complex I activity (OCR, % of control)): 70.5% | remaining activity at 500 µM (mitochondrial complex I; HCT-116; 500 μM, 24 hr, HCT116; n = 4; read-out: Complex I activity (OCR, % of control)): 82.1% | remaining activity at 1000 µM (mitochondrial complex I; HCT-116; 1000 μM, 24 hr, HCT116; n = 4; read-out: Complex I activity (OCR, % of control)): 80.2% | remaining activity at 3000 µM (mitochondrial complex I; HCT-116; 3000 μM, 24 hr, HCT116; n = 4; read-out: Complex I activity (OCR, % of control)): 83.1% | IC50 (mitochondrial complex I; read-out: IC50 Complex I (FIG. 2); mean ± SD; HCT116, 24 hr treatment): > 3000 µM | effect on complex III-induced oxygen consumption ([1]; HCT116, 24 hr): no apparent effects | remaining activity at 10 µM ([1]; HCT-116; 10 μM, 24 hr, HCT116; n = 4; read-out: Complex III activity (OCR, % of control)): 94.1% | remaining activity at 30 µM ([1]; HCT-116; 30 μM, 24 hr, HCT116; n = 4; read-out: Complex III activity (OCR, % of control)): 81.2% | remaining activity at 100 µM ([1]; HCT-116; 100 μM, 24 hr, HCT116; n = 4; read-out: Complex III activity (OCR, % of control)): 94.6% | remaining activity at 150 µM ([1]; HCT-116; 150 μM, 24 hr, HCT116; n = 4; read-out: Complex III activity (OCR, % of control)): 92.2% | remaining activity at 200 µM ([1]; HCT-116; 200 μM, 24 hr, HCT116; n = 4; read-out: Complex III activity (OCR, % of control)): 82.7% | remaining activity at 250 µM ([1]; HCT-116; 250 μM, 24 hr, HCT116; n = 4; read-out: Complex III activity (OCR, % of control)): 89.1% | remaining activity at 300 µM ([1]; HCT-116; 300 μM, 24 hr, HCT116; n = 4; read-out: Complex III activity (OCR, % of control)): 88.7% | remaining activity at 400 µM ([1]; HCT-116; 400 μM, 24 hr, HCT116; n = 4; read-out: Complex III activity (OCR, % of control)): 86.8% | remaining activity at 500 µM ([1]; HCT-116; 500 μM, 24 hr, HCT116; n = 4; read-out: Complex III activity (OCR, % of control)): 88.9% | remaining activity at 1000 µM ([1]; HCT-116; 1000 μM, 24 hr, HCT116; n = 4; read-out: Complex III activity (OCR, % of control)): 93.1% | remaining activity at 3000 µM ([1]; HCT-116; 3000 μM, 24 hr, HCT116; n = 4; read-out: Complex III activity (OCR, % of control)): 94.4% | IC50 ([1]; read-out: IC50 Complex III (FIG. 2); mean ± SD; HCT116, 24 hr treatment): > 3000 µM | IC50 (M-MDSC; 72 h, mean ± SD, three days treatment, read-out: IC50 M-MDSC (FIG. 6)): 84 ± 2.8 µM | IC50 (suppressive neutrophils; mean ± SD, three days treatment): 18 ± 1.9 µM

NC(=O)NOCCCCCCCCCC[P+](c1ccccc1)(c1ccccc1)c1ccccc1.O=C([O-])C(F)(F)F [Mito10-HU, 10-[(carbamoylamino)oxy]-decyltriphenylphosphonium trifluoroacetate]
inhibition of proliferation of MiaPaCa-2 cells [2]: increasing antiproliferative potencies | potency compared with HU in inhibiting MiaPaCa-2 cell proliferation [2]: ~100 times | effect on complex I-induced oxygen consumption (mitochondrial complex I; HCT116, 24 hr): potently inhibited | IC50 (mitochondrial complex I; [3]): 8.9 ± 1.22 µM | effect on complex III-induced oxygen consumption ([1]; HCT116, 24 hr): potently inhibited | IC50 [1, 4]: 21 ± 0.72 µM | IC50 (M-MDSC; [5]): 9.6 ± 0.39 µM | IC50 (M-MDSC; [6]): 9.6 µM | IC50 (suppressive neutrophils): > 20 µM

NC(=O)NOCCCCCCCCCCCC[P+](c1ccccc1)(c1ccccc1)c1ccccc1.O=C([O-])C(F)(F)F [Mito12-HU, 12-[(carbamoylamino)oxy]-dodecyltriphenylphosphonium trifluoroacetate]
inhibition of proliferation of MiaPaCa-2 cells [2]: increasing antiproliferative potencies | effect on complex I-induced oxygen consumption (mitochondrial complex I; HCT116, 24 hr): potently inhibited | IC50 (mitochondrial complex I; [3]): 1.6 ± 0.16 µM | effect on complex III-induced oxygen consumption ([1]; HCT116, 24 hr): potently inhibited | IC50 [1, 4]: 3.1 ± 0.18 µM | IC50 (M-MDSC; [5]): 2.6 ± 0.11 µM | IC50 (M-MDSC; [6]): 2.6 µM | IC50 (suppressive neutrophils): > 4 µM

NC(=O)NOCCCCCCCCCCCCCC[P+](c1ccccc1)(c1ccccc1)c1ccccc1.O=C([O-])C(F)(F)F [Mito14-HU, 14-[(carbamoylamino)oxy]-tetradecyltriphenylphosphonium trifluoroacetate]
effect on complex I-induced oxygen consumption (mitochondrial complex I; HCT116, 24 hr): potently inhibited | IC50 (mitochondrial complex I; [3]): 1 ± 0.12 µM | effect on complex III-induced oxygen consumption ([1]; HCT116, 24 hr): potently inhibited | IC50 [1, 4]: 1.7 ± 0.69 µM | IC50 (M-MDSC; [5]): 0.89 ± 0.1 µM | IC50 (M-MDSC; [6]): 0.89 µM | effect on M-MDSC (M-MDSC; three days): dose-dependently inhibited | IC50 (suppressive neutrophils): 0.94 ± 0.99 µM | effect on suppressive neutrophils (suppressive neutrophils; three days): dose-dependently inhibited
